Source: patent publication US10654833B2, “ASK1 isoindolin-1-one inhibitors and methods of use thereof” (Hepatikos Therapeutics, LLC, priority 2018, dated 2020)

Assays:
[1] = molecular target: human OATP1B1 transporter (Homo sapiens (Human), UniProt Q9Y6L6); test: Transporter mediated cellular uptake, OATP1B1-expressing HEK293; format: in vitro ADME; conditions: HEK293 stably expressing human OATP1B1, 37° C., 0.5 minutes
Protocol: (§1) Transporter Mediated Cellular Uptake
(§2) To determine transporter mediated cellular uptake of compounds, HEK293 stably expressing either human OATP1B1 or human OATP1B3 transporter, or mock transfected cells were cultured at 37° C. in an atmosphere of 95:5 air:CO2 DMEM/F12 medium containing 10% FBS, 100 unit/mL penicillin-G and 100 μg/mL streptomycin. Transporter expressing cell culture medium also contained 500 μg/mL G418 disulfate solution. Cells were plated onto 24-well poly-D-lysine coated culture plates at the density 5×10^5 cells/well 24 hours prior to uptake assay. Compound stock solutions were made at 1000× final concentration in 100% DMSO. Final compound solutions were prepared by diluting stock solutions into HBSS buffer (pH 7.4) On the day of the uptake assay cell culture media was removed and cells were washed twice with 300 μL of HBSS buffer (pH 7.4). Cellular uptake of compound into the cells was measured by adding 300 μL of final compound solutions in HBSS and incubating them at 37° C. for 0.5 minutes (OATP1B1) or 5 minutes (OATP1B3). Reactions were quenched by removing the buffer containing the TA and the cells were washed twice with 300 μL of HBSS buffer. Cells were lysed by adding 300 μL of MeOH:H2O (2:1) and incubated for 20 minutes at 4° C. The amount of compound in the cell lysate was determined by LC-MS/MS. The amount of protein in each well was quantified using the BCA kit for protein determination and used to normalize compound uptake (Sigma-Aldrich, St Louis, Mo., USA). • Uptake of the probe substrate in control cells provided background activity values for all data points. • Incubation with probe substrate (solvent only) provided 100% activity values. • A reference positive control was used for each transporter

[2] = molecular target: human OATP1B3 transporter (Homo sapiens (Human), UniProt Q9NPD5); test: Transporter mediated cellular uptake, OATP1B3-expressing HEK293; format: in vitro ADME; conditions: HEK293 stably expressing human OATP1B3, 37° C., 5 minutes
Protocol: as §1, §2

ASK1 kinase active site = ASK1 kinase active site (Homo sapiens (Human), UniProt Q99683); test: ASK1 kinase active site binding assay (KINOMEscan); conditions: 11-point 3-fold dilution series
Protocol: ASK1 Kinase Active Site Binding Assay
Compound binding to the ASK1 kinase active site was determined using the KINOMEscan Assay platform (DiscoverX, San Diego, Calif.). Briefly, ASK1-tagged T7 phage strains were prepared in an E. coli host derived from the BL21 strain. E. coli were grown to log-phase and infected with T7 phage and incubated with shaking at 32° C. until lysis. The lysates were centrifuged and filtered to remove cell debris. The remaining kinases were produced in HEK-293 cells and subsequently tagged with DNA for qPCR detection. Streptavidin-coated magnetic beads were treated with biotinylated small molecule ligands for 30 minutes at room temperature to generate affinity resins for kinase assays. The liganded beads were blocked with excess biotin and washed with blocking buffer (SeaBlock (Pierce), 1% BSA, 0.05% Tween 20, 1 mM DTT) to remove unbound ligand and to reduce nonspecific binding. Binding reactions were assembled by combining kinases, liganded affinity beads, and test compounds in 1× binding buffer (20% SeaBlock, 0.17×PBS, 0.05% Tween 20, 6 mM DTT). Test compounds were prepared as 111× stocks in 100% DMSO. Kds were determined using an 11-point 3-fold compound dilution series with three DMSO control points. […] The kinase concentration in the eluates was measured by qPCR. Binding constants (Kds) were calculated with a standard dose-response curve using the Hill equation. […]

[3] = molecular target: recombinant human ASK1 protein (Homo sapiens (Human), UniProt Q99683); test: ASK1 kinase activity inhibition assay (radiometric 33P incorporation into MBP); format: biochemical; conditions: 20 μM MBP, 10 μM 33P-ATP
In short: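 Compound (1% DMSO final) was preincubated for 20 min at room temperature with recombinant human ASK1 and 20 μM MBP in HEPES pH 7.5 buffer. Reactions started with 10 μM 33P-ATP and ran for 2 h at room temperature. 33P incorporation into MBP was measured by P81 filter binding.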

Chain of recombinant human ASK1 protein (Q99683 whole entry): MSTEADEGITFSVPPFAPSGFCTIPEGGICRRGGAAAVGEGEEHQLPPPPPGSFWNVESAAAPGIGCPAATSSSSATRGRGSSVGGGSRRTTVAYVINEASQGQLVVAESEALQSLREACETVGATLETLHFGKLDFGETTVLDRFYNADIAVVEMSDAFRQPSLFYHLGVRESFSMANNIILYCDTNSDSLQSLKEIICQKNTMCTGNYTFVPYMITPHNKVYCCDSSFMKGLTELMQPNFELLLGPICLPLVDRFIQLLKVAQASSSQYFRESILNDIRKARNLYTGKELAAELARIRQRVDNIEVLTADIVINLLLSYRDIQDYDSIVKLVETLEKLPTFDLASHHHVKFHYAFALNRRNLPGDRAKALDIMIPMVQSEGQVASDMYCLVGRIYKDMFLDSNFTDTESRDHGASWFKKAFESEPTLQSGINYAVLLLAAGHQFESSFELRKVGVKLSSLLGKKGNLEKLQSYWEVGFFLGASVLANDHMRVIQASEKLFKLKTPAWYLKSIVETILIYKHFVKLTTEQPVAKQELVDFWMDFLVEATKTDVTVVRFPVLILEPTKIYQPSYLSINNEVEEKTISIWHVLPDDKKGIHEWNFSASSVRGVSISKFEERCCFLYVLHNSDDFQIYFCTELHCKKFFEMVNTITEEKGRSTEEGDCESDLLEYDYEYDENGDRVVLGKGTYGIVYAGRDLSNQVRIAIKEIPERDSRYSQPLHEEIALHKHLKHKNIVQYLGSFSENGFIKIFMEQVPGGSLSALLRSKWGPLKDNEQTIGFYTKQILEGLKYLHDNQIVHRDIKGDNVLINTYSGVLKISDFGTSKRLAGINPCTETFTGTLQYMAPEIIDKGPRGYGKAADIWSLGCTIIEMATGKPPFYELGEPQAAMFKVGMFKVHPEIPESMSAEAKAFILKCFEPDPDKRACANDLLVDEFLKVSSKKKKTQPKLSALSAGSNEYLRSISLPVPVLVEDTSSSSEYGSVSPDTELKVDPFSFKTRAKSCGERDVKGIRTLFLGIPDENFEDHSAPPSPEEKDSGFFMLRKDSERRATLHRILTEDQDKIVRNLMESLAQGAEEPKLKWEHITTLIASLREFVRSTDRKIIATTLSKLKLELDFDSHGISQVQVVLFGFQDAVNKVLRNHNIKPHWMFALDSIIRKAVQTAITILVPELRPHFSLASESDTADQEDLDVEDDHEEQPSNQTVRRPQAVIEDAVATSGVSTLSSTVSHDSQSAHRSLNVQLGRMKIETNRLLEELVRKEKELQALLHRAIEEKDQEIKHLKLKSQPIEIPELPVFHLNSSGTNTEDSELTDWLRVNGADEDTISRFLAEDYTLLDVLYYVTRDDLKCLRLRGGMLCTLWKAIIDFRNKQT
Chain of human OATP1B3 transporter (Q9NPD5 whole entry): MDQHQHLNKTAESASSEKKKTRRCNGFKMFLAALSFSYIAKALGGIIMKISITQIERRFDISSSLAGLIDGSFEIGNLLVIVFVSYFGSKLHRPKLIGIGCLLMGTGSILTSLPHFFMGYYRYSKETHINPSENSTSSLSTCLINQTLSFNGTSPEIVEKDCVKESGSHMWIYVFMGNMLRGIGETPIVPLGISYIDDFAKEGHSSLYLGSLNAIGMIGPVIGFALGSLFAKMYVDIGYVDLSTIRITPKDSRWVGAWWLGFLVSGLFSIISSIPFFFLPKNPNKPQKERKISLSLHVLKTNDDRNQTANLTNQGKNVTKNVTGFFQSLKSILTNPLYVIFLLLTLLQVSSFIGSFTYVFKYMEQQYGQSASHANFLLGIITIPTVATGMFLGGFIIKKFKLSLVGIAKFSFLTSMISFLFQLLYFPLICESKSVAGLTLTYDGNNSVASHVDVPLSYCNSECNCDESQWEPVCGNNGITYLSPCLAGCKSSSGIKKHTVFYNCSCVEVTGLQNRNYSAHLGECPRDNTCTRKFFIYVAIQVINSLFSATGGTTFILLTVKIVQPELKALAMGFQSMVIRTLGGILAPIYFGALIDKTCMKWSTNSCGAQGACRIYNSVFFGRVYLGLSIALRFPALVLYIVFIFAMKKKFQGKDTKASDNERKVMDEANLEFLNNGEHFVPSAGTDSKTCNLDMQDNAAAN
Chain of human OATP1B1 transporter (Q9Y6L6 whole entry): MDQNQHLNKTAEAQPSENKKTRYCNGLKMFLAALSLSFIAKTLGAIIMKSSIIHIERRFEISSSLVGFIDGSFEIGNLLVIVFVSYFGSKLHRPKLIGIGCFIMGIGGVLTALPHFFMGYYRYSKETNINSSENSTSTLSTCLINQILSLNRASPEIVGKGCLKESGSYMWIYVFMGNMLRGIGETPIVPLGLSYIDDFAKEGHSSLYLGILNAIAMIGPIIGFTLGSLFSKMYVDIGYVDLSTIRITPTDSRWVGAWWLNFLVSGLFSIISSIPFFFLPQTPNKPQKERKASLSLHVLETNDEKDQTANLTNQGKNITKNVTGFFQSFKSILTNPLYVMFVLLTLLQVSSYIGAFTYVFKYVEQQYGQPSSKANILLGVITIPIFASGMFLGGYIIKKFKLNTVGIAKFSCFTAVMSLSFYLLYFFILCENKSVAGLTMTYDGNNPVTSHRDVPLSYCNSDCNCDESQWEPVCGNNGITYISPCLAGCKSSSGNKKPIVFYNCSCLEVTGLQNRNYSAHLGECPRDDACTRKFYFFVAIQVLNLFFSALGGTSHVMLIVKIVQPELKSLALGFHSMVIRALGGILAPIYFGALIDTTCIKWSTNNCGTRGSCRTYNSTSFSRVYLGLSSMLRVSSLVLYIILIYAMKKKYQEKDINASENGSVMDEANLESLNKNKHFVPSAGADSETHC
Chain of ASK1 kinase active site (Q99683 whole entry): as the sequence (Q99683 whole entry) above

| OATP1B1 Uptake (Percent of no transporter control cell) [1] [%] | OATP1B3 Uptake (Percent of no transporter control cell) [2] [%] | Kd (ASK1 kinase active site) [nM] | IC50 ([3]; Table 2) [nM] | IC50 ([3]; Table 3) [nM] | SMILES |
| --- | --- | --- | --- | --- | --- |
| 175 | 316 | 0.86 | 3.3 | – | CC(C)n1cnnc1-c1cccc(N2Cc3ccc(-c4ccc(C(C)(C)C(=O)O)cc4)cc3C2=O)n1 [Compound 39, 2-(4-(2-(6-(4-isopropyl-4H-1,2,4-triazol-3-yl)pyridin-2-yl)-3-oxoisoindolin-5-yl)phenyl)-2-methylpropanoic acid] |
| 753 | 399 | 0.75 | 5.2 | 5.2 | CC(C)n1cnnc1-c1cccc(N2Cc3ccc(-c4cccc(C(=O)O)c4)cc3C2=O)n1 [Compound 1, 3-(2-(6-(4-isopropyl-4H-1,2,4-triazol-3-yl)pyridin-2-yl)-3-oxoisoindolin-5-yl)benzoic acid] |
